Measured values: US7815907B2, “Antibodies to insulin-like growth factor I receptor” (Amgen Fremont Inc., priority 2001, dated 2010)

Key:
IGF-IR = IGF-IR (Homo sapiens, UniProt P08069); assay: IGF-IR levels in 3T3/IGF-IR tumors by western blot after antibody and/or adriamycin; assay type: in vivo, nude mice; design: expressed in transfected cells; host or cells: NIH-3T3 (mouse fibroblasts)
Protocol: Tumors were induced in nude mice as described in Example IX. Mice with established subcutaneous tumors of approximately 400 mm^3 were treated with a single injection of 250 μg 2.13.2 antibody (i.p.) or with 7.5 mg/kg adriamycin (i.v.), either as single agents or in combination, as described in Example IX. 72 hours after administration of the agents, tumors were extracted as described in Example VIII, and equal amounts of the tumor extracts were subjected to sodium […] polyacrylamide gel electrophoresis (SDS PAGE) and western blot analysis using the anti-IGF-IR antibody SC-713 (Santa Cruz). […] Each lane represents equal amounts of protein from individual tumors from individual mice.

guinea pig IGF-IR = assay: Species crossreactivity by immunoprecipitation/Western blot; assay type: binding; conditions: immunoprecipitation, antibody 1 μg/ml
Protocol: (§1) To perform immunoprecipitation experiments, we plated cells in DMEM high glucose media supplemented with L-glutamine (0.29 mg/ml), 10% heat-inactivated FBS, and 500 μg/ml each of geneticin, penicillin and streptomycin to 50% confluence in T25 flasks. We then added 100 μl of an antibody of the invention in Hank's buffered saline solution (HBSS; Gibco BRL) at a concentration of 1 μg/ml. We incubated the plates for 30 minutes at 37° C. in an incubator and then stimulated the cells with IGF-I at 100 ng/ml for 10 minutes at room temperature. We lysed the cells in RIPA buffer (Harlow and Lane, supra) and immunoprecipitated IGF-IR with 2 μg of pan-specific SC-713 anti-IGF-IR antibody (Santa Cruz) plus protein A agarose beads for 1 hour at 4° C. We pelleted the beads and wash three times with PBS/T (PBS+0.1% Tween-20) and then boiled the beads in 40 μl Laemmli buffer containing 5% βME.
(§2) The samples prepared as described above were then analyzed by Western blot. We loaded 12 μl of each sample per lane on 4-10% gradient Novex™ gels run with 1×MES buffer (Novex™). Gels were run at 150V for 1 hour or at 200V for approximately 30 minutes. We then transferred the gel to a membrane in Novex™ transfer buffer with 10% methanol either overnight at 100 mA or for 1-1.5 hours at 250 mA. We then allowed the membrane to dry completely and blocked at room temperature with TBS (Tris-buffered saline pH 8.0) containing Superblock (Pierce Chemical Co.). We added the IGF-IR blotting antibody SC713 (Santa Cruz) to detect immunoprecipitated IGF-IR.

canine IGF-IR = assay: as above; assay type: binding; conditions: immunoprecipitation, antibody 1 μg/ml
Protocol: as §1, §2

IGF-IR from the marmoset = assay: as above; assay type: binding; conditions: immunoprecipitation, antibody 1 μg/ml
Protocol: as §1, §2

rabbit IGF-IR = assay: as above; assay type: binding; conditions: immunoprecipitation, antibody 1 μg/ml
Protocol: as §1, §2

Rhesus IGF-IR = assay: as above; assay type: binding; conditions: immunoprecipitation, antibody 1 μg/ml
Protocol: as §1, §2

MCF-7 tumors = assay: Growth inhibition of breast cancer cell tumors; assay type: in vivo, nude mice
Protocol: Nude mice as described in Example VIII were implanted with biodegradable estrogen pellets (0.72 mg 17-β-estradiol/pellet, 60 day release; Innovative Research of America). After 48 hours, tumors were induced in nude mice essentially as described in Example IX except that MCF-7 cells (ATCC HTB-22) were used. MCF-7 cells are estrogen-dependent human breast carcinoma cells. Mice with established subcutaneous tumors of approximately 250 mm^3 were treated with 50 μg 2.13.2 antibody (i.p.) on days 1, 4, 7, 10, 13, 16, 19 and 22 […] or with 6.25 mg/kg taxol (i.p.) on days 1, 2, 3, 4, 5 (q1dx5), either as single agents or in combination, essentially as described in Example IX.
Mice having established tumors from MCF-7 cells as described immediately above were treated on day 1 with various amounts of 2.13.2 antibody (i.p.) alone or with 3.75 mg/kg adriamycin (i.v.), essentially as described in Example IX.
Mice having established tumors from MCF-7 cells as described immediately above were treated with 250 μg 2.13.2 antibody (i.p.) on days 1, 8, 15 and 23 or with a biodegradable tamoxifen pellet (25 mg/pellet, free base, 60 day release, Innovative Research of America), either as single agents or in combination, essentially as described in Example IX. The tamoxifen pellet was implanted on day 1 after the tumor was established.

3T3/IGF-IR cell tumors = assay: Growth inhibition of 3T3/IGF-IR cell tumors; assay type: in vivo, athymic (nu/nu) mice
Protocol: We tested whether anti-IGF-IR antibodies of the invention would function to inhibit tumor growth. We induced tumors as described above (Example VIII) and when established, palpable tumors formed (i.e. 250 mm^3, within 6-9 days), we treated the mice with a single, 0.20 ml dose of antibody by intraperitoneal injection. We measured tumor size by Vernier calipers across two diameters every third day and calculated the volume using the formula (length×[width]^2)/2 using methods established by Geran, et al., “Protocols for screening chemical agents and natural products against animal tumors and other biological systems,” Cancer Chemother. Rep. 3:1-104.
Tumors were induced in nude mice as described in Example IX. Mice with established subcutaneous tumors of approximately 250 mm^3 were treated on days 1, 8, 15 and 22 with various amounts of 2.13.2 antibody (i.p.) or 7.5 mg/kg adriamycin (i.v.), either as single agents or in combination, as described in Example IX.
Tumors were induced in nude mice as described in Example IX. Mice with large established subcutaneous tumors of slightly less than 2000 mm^3 were treated on days 1 and 8 with various amounts of 2.13.2 antibody (i.p.) or 7.5 mg/kg adriamycin (i.v.), either as single agents or in combination, as described in Example IX. […] Control, antibody alone and adriamycin alone animal groups were terminated at day 5, when the tumor size exceeded 2000 mm^3.

2.13.2: human IgG2κ monoclonal antibody specific for IGF-IR from hybridoma 2.13.2 (ATCC PTA-2788)
IGF-IR levels in tumors, adriamycin and antibody together (IGF-IR; 72 hours after 250 μg 2.13.2 i.p. plus 7.5 mg/kg adriamycin i.v.): dramatic decrease in IGF-IR levels | IGF-IR levels in tumors, single agent (IGF-IR; 72 hours after single 250 μg 2.13.2 i.p. or 7.5 mg/kg adriamycin i.v.): some decrease in IGF-IR levels | binding to guinea pig IGF-IR (guinea pig IGF-IR): not | binding to canine IGF-IR (canine IGF-IR): not | binding to marmoset IGF-IR (IGF-IR from the marmoset): not | binding to rabbit IGF-IR (rabbit IGF-IR): not | binding to Rhesus IGF-IR (Rhesus IGF-IR): able to bind | effect on effectiveness of taxol (MCF-7 tumors; 50 μg i.p. once every three days with 6.25 mg/kg taxol i.p. q1dx5): enhances the effectiveness of taxol | MCF-7 tumor growth (MCF-7 tumors; 50 μg i.p. once every three days, by itself): inhibits human breast cancer cell growth | MCF-7 tumor growth (MCF-7 tumors; 250 μg i.p. on days 1, 8, 15 and 23, by itself): inhibits human breast cancer growth | effect on effectiveness of tamoxifen (MCF-7 tumors; 250 μg i.p. on days 1, 8, 15 and 23 with tamoxifen pellet 25 mg): enhances the effectiveness of tamoxifen | MCF-7 tumor growth (MCF-7 tumors; single treatment i.p. on day 1, by itself): inhibits human breast cancer cell growth | effect on effectiveness of adriamycin (MCF-7 tumors; single treatment on day 1 with 3.75 mg/kg adriamycin i.v.): enhances the effectiveness of adriamycin | tumor cell growth (3T3/IGF-IR cell tumors; antibody i.p. on days 1, 8, 15 and 22, single agent): inhibits tumor cell growth | growth delay versus treatment with the antibody or adriamycin alone (3T3/IGF-IR cell tumors; combination with single dose 7.5 mg/kg adriamycin i.v.): 7 days | tumor cell growth in combination with adriamycin (3T3/IGF-IR cell tumors; days 1, 8, 15 and 22, with 7.5 mg/kg adriamycin i.v.): enhances inhibition of tumor cell growth | effect on effectiveness of adriamycin (3T3/IGF-IR cell tumors; single dose antibody with single dose 7.5 mg/kg adriamycin i.v.): enhanced the effectiveness of adriamycin | tumor growth (3T3/IGF-IR cell tumors; single treatment i.p., antibody alone): inhibited the growth | efficacy against large tumors in combination with adriamycin (3T3/IGF-IR cell tumors; tumors slightly less than 2000 mm^3, days 1 and 8, with 7.5 mg/kg adriamycin i.v.): highly efficacious
